Measured values reported in publication PMC5556071, “ATR inhibition facilitates targeting of leukemia dependence on convergent nucleotide biosynthetic pathways” (Nature Communications, 2017).
Where “and” joins values, the source holds several entries; their conditions need not be identical. Equal values may be shown once.

Tested on: CEM cells
Test: Non-targeted LC-MS metabolite profiling: percent [13C6]glucose labeling and relative metabolite levels
Format: cell-based, human
Details: CEM cells, 12 h following release from G1 arrest, replicates #1-#6
Excerpt: To further investigate the functions of dCK and ATR at the G1/S transition in CEM cells, a non-targeted liquid chromatography mass spectrometry (LC-MS) assay was used to determine the utilization of labeled [^13C6]glucose and [^13C9,^15N3]deoxycytidine, the main substrates for de novo and salvage nucleotide biosynthesis, respectively. Of the 166 metabolites identified in CEM cells treated with VE-822 and/or dCKi, 105 metabolites found in all four treatment groups contained glucose-derived ^13C atoms. […] These metabolites included intermediates such as rUTP, rCTP and rCDP in the de novo dCTP biosynthesis (Fig. 1d). […] However, several deoxyribonucleotides, including dCTP, were below the limit of detection of the non-targeted LC-MS approach, raising the concern that the sensitivity of this assay is not sufficient to measure the contribution of the salvage pathway or the ratio of de novo and salvage biosynthesis to these pools. To address this problem, a newly developed targeted MS assay was developed (Fig. 1e and Supplementary Fig. 3). In this assay, samples containing either extracted dNTPs or hydrolyzed DNA from labeled cells are separated by LC for detection by a triple quadrupole mass spectrometer using multiple reaction monitoring (LC-MS/MS-MRM). The first (Q1) and third (Q3) quadrupoles function as mass filters, while the second (Q2) quadrupole serves as a collision chamber (Fig. 1e). For instance, to profile the biosynthetic composition of deoxycytidine (dC) derived from hydrolyzed DNA or dCTP, an intact, protonated dC ion is selected in Q1, followed by fragmentation of the glycosidic bond, which releases protonated cytosine in Q2, that is filtered in Q3 and detected to generate an ion chromatogram. The peak areas for the ion chromatograms of salvage [^13C9,^15N3]dC (red trace), de novo [^13C5]dC (black trace, from [^13C6]glucose) and unlabeled dC (gray trace) (Fig. 1e) are used to determine the relative contributions of the de novo and salvage routes both to dCTP pools and to DNA-incorporated dCTP.
Cells were transferred into RPMI-1640 without glucose and supplemented with 10% dialyzed FBS (Gibco) containing the following labeled substrates: precursors for de novo [U-^13C6]glucose (Sigma-Aldrich, 389374) at 11 mM; precursors for purine salvage [U-^13C10,^15N5]dA (Cambridge Isotopes, CIL 3896), [^15N5]dA (Cambridge Isotopes, NLM-3895) and [^15N5]dG (Cambridge Isotopes, NLM-3899) at 5 µM or as indicated; and precursors for pyrimidine salvage: [U-^13C9,^15N3]dC (Silantes, 124603602) and [U-^13C10,^15N2]dT (Cambridge Isotopes, CNLM-3902) at 5 µM and [^15N2]orotate (Cambridge Isotopes, NLM-1048) at indicated concentrations. The cells were incubated for 12 h or as indicated before sample collection and processing. […]
Non-targeted LC-MS metabolic assays. 1 x 10^6 cells were washed with ice-cold 150 mM ammonium acetate twice before adding 1 mL of ice-cold 80% methanol with 10 nM norvaline as an internal standard. After vigorous vortexing, samples were centrifuged at maximum speed, the aqueous layer was transferred to a glass vial and the metabolites were dried under vacuum. Metabolites were resuspended in 50 μL 70% acetonitrile (ACN) and 5 μL of this solution used for the mass spectrometer-based analysis. The analysis was performed on a Q Exactive (Thermo Scientific) in polarity-switching mode with positive voltage 4.0 kV and negative voltage 4.0 kV. The mass spectrometer was coupled to an UltiMate 3000RSLC (Thermo Scientific) UHPLC system. Mobile phase A was 5 mM ammonium acetate (NH4AcO), pH 9.9, B was acetonitrile and the separation achieved on a Luna […] NH2 100 A column (150 × 2.0 mm, Phenomenex). The flow was 200 μL/min, and the gradient ran from 15% A to 95% A in 18 min, followed by an isocratic step for 9 min and re-equilibration for 7 min. Metabolites were detected and quantified as area under the curve based on retention time and accurate mass (≤ 3 p.p.m.) using the TraceFinder 3.1 (Thermo Scientific). Relative amounts of […]

COc1ccc(-c2nc([C@@H](C)Sc3nc(N)cc(N)n3)c(C)s2)cc1OCCNS(C)(=O)=O [dCKi]
Glucose labeling, Trp (C00078): 0.00% | Glucose labeling, Val (C00183): 0.00% | Relative level, PEP: 0.343 | Glucose labeling, Isocaproate (listed as D): 0.00% (5×) and -2.22e-14% | Glucose labeling, Lac (listed as D): 17.43% and 30.68% and 33.28% and 15.68% and 13.00% and 14.89% | Glucose labeling, Leu/Ile (listed as D): -2.22e-14% and 0.00% (4×) and 1.11e-14% | Glucose labeling, Mal (listed as D): 22.81% and 24.17% and 24.40% and 21.37% and 22.21% and 23.38% | Glucose labeling, Met (listed as D): 0.00216% and 0.00198% and 0.00236% and 0.00202% and 0.00192% and 0.00223% | Glucose labeling, N-Carbamoyl-L-aspartate (listed as D): 0.000983% and 0.12% (2×) and 0.00101% and 100.00% (2×) | Glucose labeling, NADP+ (listed as D): 100.00% (4×) and 0.00% (2×) | Glucose labeling, Ornithine (listed as D): 0.08% (2×) and 0.12% (3×) and 0.09% | Glucose labeling, Orotate (listed as D): 5.20% and 3.14% and 4.02% and 100.00% and 0.12% (2×) | Glucose labeling, Orotidine (listed as D): 49.18% and 49.16% and 49.11% and 54.80% and 53.82% and 55.45% | Glucose labeling, P-Choline (listed as D): 0.00228% and 0.00166% (2×) and 0.00229% and 0.00101% and 0.00171% | Glucose labeling, P-Ser (listed as D): 21.30% and 20.75% and 19.61% and 16.22% and 19.77% and 14.08% | Glucose labeling, Palmitate (listed as D): 0.0136% and 0.0179% and 0.09% and 0.03% and 0.0457% and 0.04% | Glucose labeling, Pantothenate (listed as D): 0.00% (5×) and 1.11e-14% | Glucose labeling, Pro (listed as D): 9.90% and 11.07% and 10.77% and 9.63% and 9.83% and 9.85% | Glucose labeling, Pro-OH (listed as D): 0.00135% and 0.00138% and 0.000869% and 0.0017% and 0.00248% and 0.00239% | Glucose labeling, R5P (listed as D): 87.51% and 100.00% (5×) | Glucose labeling, S7P (listed as D): 85.34% and 43.01% and 49.65% and 0.26% and 34.90% and 73.97% | Glucose labeling, SAM (listed as D): 73.81% and 73.09% and 74.83% and 72.35% and 72.18% and 72.31% | Glucose labeling, Sarc (C00213) (listed as D): 0.0243% (2×) and 0.0369% (3×) and 0.0225% | Glucose labeling, Ser (C00065) (listed as D): 13.87% and 15.01% and 14.51% and 12.51% and 11.83% and 11.82% | Glucose labeling, Shikimate (C00493) (listed as D): 0.00% (5×) and 1.11e-14% | Glucose labeling, Succ (C00042) (listed as D): 0.0276% and 1.49% and 1.88% and 0.0331% and 0.0737% (2×) | Glucose labeling, T (C00214) (listed as D): 0.15% and 0.44% and 0.32% and 0.24% and 0.03% and 0.02% | Glucose labeling, Thymine (C00178) (listed as D): 0.02% (2×) and 0.00812% and 0.0214% and 0.0432% and 0.0317% | Glucose labeling, Tyr (C00082) (listed as D): 0.00% (5×) and 1.11e-14% | Glucose labeling, Tyramine (C00483) (listed as D): 0.00% (5×) and 1.11e-14% | Glucose labeling, UDP (C00015) (listed as D): 74.72% and 81.32% and 85.65% and 45.74% and 66.67% and 72.12% | Glucose labeling, UDP-Glc (C00029) (listed as D): 95.49% and 96.74% and 98.34% and 91.90% and 85.90% and 94.22% | Glucose labeling, UDP-GlcNAc (C00043) (listed as D): 91.41% and 90.20% and 90.50% and 87.89% and 87.54% and 87.94% | Glucose labeling, UMP (C00105) (listed as D): 79.30% and 82.81% and 83.09% and 50.51% and 65.12% and 69.81% | Glucose labeling, UTP (C00075) (listed as D): 90.44% and 89.69% and 89.62% and 94.73% and 88.15% and 87.27% | Glucose labeling, Uracil (C00106) (listed as D): 0.0737% (3×) and 0.06% and 0.05% and 0.065% | Glucose labeling, Uric Acid (C00366) (listed as D): 0.00% (4×) and -2.22e-14% (2×) | Glucose labeling, Urocanate (C00785) (listed as D): 0.00% (5×) and 1.11e-14% | Glucose labeling, Vit-C (C00072) (listed as D): 0.00% (4×) and 1.11e-14% (2×) | Glucose labeling, Xanthine (C00385) (listed as D): 0.10% (2×) and 0.12% (3×) and 0.08% | Relative level, Isocaproate (listed as D): 1.0 (2×) and 0.8 and 0.9 (3×) | Relative level, Lac (listed as D): 1.1 and 0.9 and 1.0 and 0.446 and 0.548 and 0.7 | Relative level, Leu/Ile (listed as D): 1.0 and 1.3 and 1.5 and 0.8 (2×) and 0.9 | Relative level, Lys (listed as D): 1.2 (2×) and 1.5 and 0.8 (2×) and 0.9 | Relative level, Mal (listed as D): 0.8 and 1.0 and 1.4 and 0.339 and 0.53 and 0.65 | Relative level, Met (listed as D): 1.0 and 1.3 and 1.4 and 0.8 (2×) and 0.9 | Relative level, N-Carbamoyl-L-aspartate (listed as D): 0.7 and 1.5 and 2.9 and 0.5 | Relative level, NAD+ (listed as D): 0.8 and 1.1 (2×) and 1.3 and 0.553 and 0.7 | Relative level, NADP+ (listed as D): 1.6 and 0.273 | Relative level, Nicotinamide (listed as D): 1.3 and 1.4 and 1.2 and 0.7 and 0.743 and 0.527 | Relative level, Ornithine (listed as D): 1.6 and 0.9 and 1.1 and 0.8 (2×) and 1.0 | Relative level, Orotate (listed as D): 0.468 and 0.9 and 0.8 and 0.0556 and 0.0189 | Relative level, Orotidine (listed as D): 1.2 and 1.6 and 1.5 and 0.8 (2×) and 0.9 | Relative level, P-Choline (listed as D): 1.0 and 1.1 and 1.4 and 0.5 (2×) and 0.65 | Relative level, P-Creatine (listed as D): 0.8 and 0.6 and 1.6 and 2.2 and 1.2 and 1.5 | Relative level, P-EtA (listed as D): 0.9 and 0.452 and 1.3 and 0.5 and 0.6 and 0.8 | Relative level, P-Ser (listed as D): 1.2 and 1.3 (2×) and 0.3 and 0.317 and 0.334 | Relative level, Palmitate (listed as D): 1.1 (4×) and 0.85 and 0.9 | Relative level, Pantothenate (listed as D): 1.2 and 1.6 and 1.7 and 0.9 (3×) | Relative level, Phe (listed as D): 1.1 and 1.4 and 1.6 and 0.9 (2×) and 1.0 | Relative level, Pipecolate (listed as D): 1.2 and 1.1 and 1.4 and 0.8 and 0.7 and 0.9 | Relative level, Pro (listed as D): 1.0 and 1.3 (2×) and 0.8 (2×) and 0.753 | Relative level, Pro-OH (listed as D): 1.1 and 1.2 and 1.3 and 0.8 (2×) and 0.75 | Relative level, Pyr (listed as D): 0.171 and 2.0 and 11.3 and 1.7 and 3.4 and 3.3 | Relative level, R5P (listed as D): 0.9 and 0.4 and 2.2 and 0.2
